Data as given in patent US20090131441A1, “Metabolites Of 2-Arylpropionic Acid Derivatives And Pharmaceutical Compositions Containing Them” (DOMPE phar.r.ma S.p.A., priority 2005, published 2009).

Tests used:
[1] = in vitro binding to rat plasma proteins; format: in vitro ADME; settings: compound concentration 10 μg/mL, read-out: Protein Binding (converted)
Source text: (§1) Table I and II show, as an example, the significant differences in T1/2 and protein binding (%) between metabolites of formula (I) and corresponding parent compounds of formula (III).

[2] = T1/2 after single bolus i.v. administration in rat; settings: in vivo, iv; after single bolus i.v. administration in rat (15 mg/Kg); read-out: T½ (converted)
Source text: Furthermore, the compounds of formula (I) have a pharmacokinetic profile particularly advantageous for the therapeutic use. In fact, as compared to the compounds of formula (III), the compounds of the invention, administered “in vivo” by the i.v. route, show a longer T1/2 associated to a reduced clearance time.
as §1

[3] = system: IL-8 induced chemotaxis of human PMNs; test: IL-8 induced PMN chemotaxis assay; format: cell-based; settings: read-out: inhibition of IL-8-induced PMN migration
Protocol: The compounds of the invention of formula (I) were evaluated in vitro for their ability to inhibit chemotaxis of polymorphonucleate leukocytes (hereinafter referred to as PMNs) and monocytes induced by the fractions of IL-8 and GRO-α and C5a and directly compared to the corresponding parent 4-isobutyl compounds of formula (III). For this purpose, in order to isolate the PMNs from heparinized human blood, taken from healthy adult volunteers, mononucleates were removed by means of sedimentation on dextran (according to the procedure disclosed by W. J. Ming et al., J. Immunol., 138, 1469, 1987) and red blood cells by a hypotonic solution. The cell vitality was calculated by exclusion with Trypan blue, whilst the ratio of the circulating polymorphonucleates was estimated on the cytocentrifugate after staining with Diff Quick. […]
The compounds of the invention in formula (I) were evaluated at a concentration ranging between 10^−6 and 10^−10 M; for this purpose they were added, at the same concentration, both to the lower pores and the upper pores of the microchamber. […]

Structure (SMILES)	fraction unbound at 10 μg/mL [1]	half-life [2] [h]	inhibition at 1 µM ([3]; compound concentration 10^−6M) [%]	inhibition at 0.01 µM ([3]; compound concentration 10^−8M) [%]
CC(C)Cc1ccc([C@@H](C)C(=O)NCCCN2CCCCC2)cc1 [(R)-2-[(4-isobutyl)phenyl]-N-[3″-(N′-piperidino)propyl]propionamide, reference compound]	0.2	1	–	–
CC(C)Cc1ccc([C@@H](C)C(=O)NS(C)(=O)=O)cc1 [(R)-2-[(4-isobutyl)phenyl]propionyl methanesulfonamide, reference compound]	< 0.01	0.5	–	–
CC(Cc1ccc([C@@H](C)C(=O)NS(C)(=O)=O)cc1)C(=O)O (stereo partly drawn) [Example 1, (2R) (2″ R, S) 2-[4′-(2″-carboxyprop-1-yl)phenyl]propionyl methanesulfonamide]	0.28	2	66 ± 8	49 ± 9
CC(Cc1ccc([C@@H](C)C(=O)NCCCN2CCCCC2)cc1)C(=O)O (stereo partly shown) [Example 4]	0.3	2	–	–
